The first test deals with NCI-H1395. Briefly: relative viability (nuclei count vs DMSO), 5 days (fraction); higher = more cells survive. Conditions: first compound 8 µM. In short, it runs like this: (§1)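 Relative viability divides the nuclei count in treated wells by that in vehicle wells. Lung cancer cell lines were seeded in 1536-well plates, dosed by pin tool the next day, and fixed and stained after 5 days in one step with final 0.05% Triton X-100, 1% formaldehyde and 1 ug/ml Hoechst. Dosing was a single drug or a fixed anchor-drug dose plus five library-drug doses (not always all listed) in √10 steps, and values are medians of duplicate plates imaged at 4×.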
For `Nc1cccc2c1CN(C1CCC(=O)NC1=O)C2=O` (stereo not given) [Lenalidomide] + Nc1ncn([C@H]2C[C@H](O)[C@@H](CO)O2)c(=O)n1 [Decitabine] (partner 2 µM), the relative viability is 0.703.
On the same count and under the same terms, under `Nc1cccc2c1CN(C1CCC(=O)NC1=O)C2=O` (stereo not given) [Lenalidomide] + Cc1nc(Nc2ncc(C(=O)Nc3c(C)cccc3Cl)s2)cc(N2CCN(CCO)CC2)n1 [Dasatinib] (partner 0.075 µM) stands 0.367; under `Nc1cccc2c1CN(C1CCC(=O)NC1=O)C2=O` (stereo not given) [Lenalidomide] + N=C(N)NC(=N)NCCc1ccccc1 [Phenformin] (partner 250 µM), 0.419.
On the same count and under the same terms, under `Nc1cccc2c1CN(C1CCC(=O)NC1=O)C2=O` (stereo not given) [Lenalidomide] + CC(=O)c1c(C)c2cnc(Nc3ccc(N4CCNCC4)cn3)nc2n(C2CCCC2)c1=O [Palbociclib] (partner 0.5 µM) stands 0.592.

Another test has as its system NCI-H661. Described as above. As to conditions: first compound 0.253 µM. In outline: as §1
`Nc1cccc2c1CN(C1CCC(=O)NC1=O)C2=O` (stereo not given) [Lenalidomide] + CCNC(=O)c1noc(-c2cc(C(C)C)c(O)cc2O)c1-c1ccc(CN2CCOCC2)cc1 [Luminespib] (partner 0.01 µM) showed a relative viability of 0.835.
Same read-out and setting: under `Nc1cccc2c1CN(C1CCC(=O)NC1=O)C2=O` (stereo not given) [Lenalidomide] + Nc1ncn([C@H]2C[C@H](O)[C@@H](CO)O2)c(=O)n1 [Decitabine] (partner 2 µM) stands 0.568; under `Nc1cccc2c1CN(C1CCC(=O)NC1=O)C2=O` (stereo not given) [Lenalidomide] + Cc1nc(Nc2ncc(C(=O)Nc3c(C)cccc3Cl)s2)cc(N2CCN(CCO)CC2)n1 [Dasatinib] (partner 0.075 µM), 0.934; under `Nc1cccc2c1CN(C1CCC(=O)NC1=O)C2=O` (stereo not given) [Lenalidomide] + N=C(N)NC(=N)NCCc1ccccc1 [Phenformin] (partner 250 µM), 0.276.
Same read-out and setting: the value for `Nc1cccc2c1CN(C1CCC(=O)NC1=O)C2=O` (stereo not given) [Lenalidomide] + CC(=O)c1c(C)c2cnc(Nc3ccc(N4CCNCC4)cn3)nc2n(C2CCCC2)c1=O [Palbociclib] (partner 0.5 µM) was 0.386.

The same test, now with this note: first compound 0.8 µM.
With `Nc1cccc2c1CN(C1CCC(=O)NC1=O)C2=O` (stereo not given) [Lenalidomide] + CCNC(=O)c1noc(-c2cc(C(C)C)c(O)cc2O)c1-c1ccc(CN2CCOCC2)cc1 [Luminespib] (partner 0.01 µM), the relative viability came to 0.864.
Still for that read-out and setting: the value for `Nc1cccc2c1CN(C1CCC(=O)NC1=O)C2=O` (stereo not given) [Lenalidomide] + Nc1ncn([C@H]2C[C@H](O)[C@@H](CO)O2)c(=O)n1 [Decitabine] (partner 2 µM) was 0.548.
Molecule `Nc1cccc2c1CN(C1CCC(=O)NC1=O)C2=O` (stereo not given) [Lenalidomide] + Cc1nc(Nc2ncc(C(=O)Nc3c(C)cccc3Cl)s2)cc(N2CCN(CCO)CC2)n1 [Dasatinib] (partner 0.075 µM) came in with a relative viability of 0.854.
`Nc1cccc2c1CN(C1CCC(=O)NC1=O)C2=O` (stereo not given) [Lenalidomide] + N=C(N)NC(=N)NCCc1ccccc1 [Phenformin] (partner 250 µM): the relative viability was determined as 0.314.
`Nc1cccc2c1CN(C1CCC(=O)NC1=O)C2=O` (stereo not given) [Lenalidomide] + CC(=O)c1c(C)c2cnc(Nc3ccc(N4CCNCC4)cn3)nc2n(C2CCCC2)c1=O [Palbociclib] (partner 0.5 µM) showed a relative viability of 0.377.

The test is the same for the next values; noted with them: first compound 2.53 µM.
Molecule `Nc1cccc2c1CN(C1CCC(=O)NC1=O)C2=O` (stereo not given) [Lenalidomide] + CCNC(=O)c1noc(-c2cc(C(C)C)c(O)cc2O)c1-c1ccc(CN2CCOCC2)cc1 [Luminespib] (partner 0.01 µM) returned a relative viability of 0.847.
The same measure, in the same setting: under `Nc1cccc2c1CN(C1CCC(=O)NC1=O)C2=O` (stereo not given) [Lenalidomide] + Nc1ncn([C@H]2C[C@H](O)[C@@H](CO)O2)c(=O)n1 [Decitabine] (partner 2 µM) stands 0.621.
Same read-out and setting: under `Nc1cccc2c1CN(C1CCC(=O)NC1=O)C2=O` (stereo not given) [Lenalidomide] + Cc1nc(Nc2ncc(C(=O)Nc3c(C)cccc3Cl)s2)cc(N2CCN(CCO)CC2)n1 [Dasatinib] (partner 0.075 µM) stands 0.918; under `Nc1cccc2c1CN(C1CCC(=O)NC1=O)C2=O` (stereo not given) [Lenalidomide] + N=C(N)NC(=N)NCCc1ccccc1 [Phenformin] (partner 250 µM), 0.296; under `Nc1cccc2c1CN(C1CCC(=O)NC1=O)C2=O` (stereo not given) [Lenalidomide] + CC(=O)c1c(C)c2cnc(Nc3ccc(N4CCNCC4)cn3)nc2n(C2CCCC2)c1=O [Palbociclib] (partner 0.5 µM), 0.348.

Still in this test, the particulars now being: first compound 8 µM.
The molecule `Nc1cccc2c1CN(C1CCC(=O)NC1=O)C2=O` (stereo not given) [Lenalidomide] + CCNC(=O)c1noc(-c2cc(C(C)C)c(O)cc2O)c1-c1ccc(CN2CCOCC2)cc1 [Luminespib] (partner 0.01 µM) gave a relative viability of 0.9.
Same read-out and setting: the value for `Nc1cccc2c1CN(C1CCC(=O)NC1=O)C2=O` (stereo not given) [Lenalidomide] + Nc1ncn([C@H]2C[C@H](O)[C@@H](CO)O2)c(=O)n1 [Decitabine] (partner 2 µM) was 0.568; that for `Nc1cccc2c1CN(C1CCC(=O)NC1=O)C2=O` (stereo not given) [Lenalidomide] + Cc1nc(Nc2ncc(C(=O)Nc3c(C)cccc3Cl)s2)cc(N2CCN(CCO)CC2)n1 [Dasatinib] (partner 0.075 µM) was 0.86; that for `Nc1cccc2c1CN(C1CCC(=O)NC1=O)C2=O` (stereo not given) [Lenalidomide] + N=C(N)NC(=N)NCCc1ccccc1 [Phenformin] (partner 250 µM) was 0.249.
Same read-out and setting: the value for `Nc1cccc2c1CN(C1CCC(=O)NC1=O)C2=O` (stereo not given) [Lenalidomide] + CC(=O)c1c(C)c2cnc(Nc3ccc(N4CCNCC4)cn3)nc2n(C2CCCC2)c1=O [Palbociclib] (partner 0.5 µM) was 0.357.

For a further test, the system named is NCI-H3122. Described as above. As to conditions: first compound 0.253 µM. In outline: as §1
`Nc1cccc2c1CN(C1CCC(=O)NC1=O)C2=O` (stereo not given) [Lenalidomide] + CCNC(=O)c1noc(-c2cc(C(C)C)c(O)cc2O)c1-c1ccc(CN2CCOCC2)cc1 [Luminespib] (partner 0.01 µM) yielded a relative viability of 0.0887.
As to `Nc1cccc2c1CN(C1CCC(=O)NC1=O)C2=O` (stereo not given) [Lenalidomide] + Nc1ncn([C@H]2C[C@H](O)[C@@H](CO)O2)c(=O)n1 [Decitabine] (partner 2 µM), the relative viability is 0.375.
On the same count and under the same terms, the value for `Nc1cccc2c1CN(C1CCC(=O)NC1=O)C2=O` (stereo not given) [Lenalidomide] + Cc1nc(Nc2ncc(C(=O)Nc3c(C)cccc3Cl)s2)cc(N2CCN(CCO)CC2)n1 [Dasatinib] (partner 0.075 µM) was 0.897; that for `Nc1cccc2c1CN(C1CCC(=O)NC1=O)C2=O` (stereo not given) [Lenalidomide] + N=C(N)NC(=N)NCCc1ccccc1 [Phenformin] (partner 250 µM) was 0.379; that for `Nc1cccc2c1CN(C1CCC(=O)NC1=O)C2=O` (stereo not given) [Lenalidomide] + CC(=O)c1c(C)c2cnc(Nc3ccc(N4CCNCC4)cn3)nc2n(C2CCCC2)c1=O [Palbociclib] (partner 0.5 µM) was 0.178.

Still in this test, the particulars now being: first compound 0.8 µM.
Take `Nc1cccc2c1CN(C1CCC(=O)NC1=O)C2=O` (stereo not given) [Lenalidomide] + CCNC(=O)c1noc(-c2cc(C(C)C)c(O)cc2O)c1-c1ccc(CN2CCOCC2)cc1 [Luminespib] (partner 0.01 µM): the relative viability turned out to be 0.0863.

Source of the values: the supplement of paper PMC10307832.
